Source: paper PMC9586926, “An efflux-susceptible antibiotic-adjuvant with systemic efficacy against mouse infections” (Scientific Reports, 2022)
≈ marks a conversion by molar mass, not a printed value.

Assays:
A. baumannii 19606 = test: Selective pressure, MIC evolution over 15 consecutive subcultures; conditions: in absence of C10BBc12B
Protocol: The likelihood of antimicrobial-resistance development was assessed by recording MIC changes upon consecutive rounds of antimicrobials application, as in the MIC assay. Following each round, bacteria from wells corresponding to ½ of the resulting MIC were regrown in fresh media to mid-logarithmic phase and subjected to the same procedure for 15 consecutive days[66].

E. coli 25922 [1] = format: cell-based, Escherichia coli; conditions: E. coli
Protocol: (§1) MIC was determined according to the broth microdilution method: antimicrobials were subjected to serial twofold dilutions in LB medium, and incubated with 5 × 10^5 CFU/ml of bacteria (final volume of 200 µl) for 18–24 h at 37 °C. Then, O.D.620 nm was measured (BioTek Instruments Synergy HT; Winooski, VT, USA), and the MIC was defined as the lowest antimicrobial concentration for which no increase in O.D.620 nm was evident, compared to the untreated control.
(§2) Lipopeptides and antibiotics combinations were assessed using a modified version of the checkerboard titration method: Antibiotics MIC was determined in LB medium containing sub-inhibitory lipopeptide concentrations. The sensitization factor (SF)[46] was then calculated by SF = MICA/MICC, where “MICA” is the antibiotic MIC in absence of an adjuvant and “MICC “ is the antibiotic MIC in presence of an adjuvant, for a specified adjuvant concentration. Combinations were classified as synergistic when antibiotics MIC were decreased by > 4 folds. Alternatively, the fractional inhibitory concentration index (FICI) was calculated by FICI = MICC1/MICA1 + MICC2/MICA2, where “MICC1” and “MICC2” respectively specify the antibiotic and the adjuvant MIC values upon their combination, whereas “MICA1” and “MICA2” respectively specify the antibiotic and the adjuvant MIC values when tested individually. Combinations were classified as synergistic for FICI < 0.5.

E. coli 25922 [2] = test: Growth / time-kill kinetics; format: cell-based, Escherichia coli; conditions: 10 µM C10BBc12B, 1 µg/ml erythromycin or 20 ng/ml rifampin alone
Protocol: Antimicrobials mode of action was determined according to the rate of bacterial killing. Varying concentrations of lipopeptides, antibiotics and combinations thereof were mixed in LB medium with 5 × 10^5 CFU/ml of bacteria (final volume of 1 ml) and incubated at 37 °C with shaking. At the designated time-points aliquots were serially tenfold diluted in saline, plated on LB agar, and incubated over-night at 37 °C for enumeration.

E. coli 25922 [3] = test: Peritonitis-sepsis infection model in neutropenic mice; format: in vivo; conditions: n = 10
Protocol: (§3) The study is reported in accordance with ARRIVE guidelines.
(§4) Lipopeptides potential application in monotherapy and/or combination-therapies was explored with two infection models. In the peritonitis-sepsis model, mice (n = 10 per group) were first rendered neutropenic by two intraperitoneal (I.P.) injections of 0.3 ml containing 150 mg/kg and 100 mg/kg cyclophosphamide, administered 4 days and 1 day before the experiment, respectively. […] Mice survival was recorded for up to 7 days. In a variant assay, bacteria in PBS (1.4 × 10^6) were pre-treated with 10 µM lipopeptides for 15 min, similarly administered, and mice survival was recorded for up to 3 days. In the urinary-tract infection (UTI) model, mice (N = 5 mice per group) were anesthetized by a single I.P. injection (0.2 ml) containing a mixture of ketamine (100 mg/kg) and xylazine (5 mg/kg). Following application of an analgesic 2% lidocaine gel on their penises, mice were infected intra-urethraly using a 24-gauge catheter with 1.2 × 10^8 CFU/mouse (0.05 ml) and treated with the vehicle control (S.C., 1 h post-infection), 2 mg/kg rifampin (oral gavage, immediately before anesthesia), 7.5 mg/kg q.i.d. lipopeptides (S.C., starting 1 h post-infection), or both. Mice were sacrificed 24 h post-infection, their bladder and kidneys aseptically excised, suspended in 5 ml of sterile PBS, homogenized for 3 min using a bench-top homogenizer, serially tenfold diluted in saline, plated on LB agar, and incubated over-night at 37 °C for enumeration.

[4] = tested on: E. coli Ag100 (wild-type); conditions: cited from earlier work
Source text: Table 2 Effect of RND pumps on growth-inhibitory activity. | column: MIC^a (µM) in LB / E. coli / Wild-Type

[5] = tested on: S. Typhimurium 14028 (wild-type); conditions: cited from earlier work
Source text: Table 2 Effect of RND pumps on growth-inhibitory activity. | column: MIC^a (µM) in LB / S. Typhimurium / Wild-Type

E. coli Ag100a (ΔacrAB) = conditions: cited from earlier work
Source text: Table 2 Effect of RND pumps on growth-inhibitory activity. | column: MIC^a (µM) in LB / E. coli / Mutant

[6] = tested on: S. Typhimurium 14028ΔAcrAB; conditions: cited from earlier work
Source text: Table 2 Effect of RND pumps on growth-inhibitory activity. | column: MIC^a (µM) in LB / S. Typhimurium / Mutant

UPEC CFT073 = test: Urinary-tract infection model; format: in vivo, mice; conditions: 24 h post-infection; 2 mg/kg rifampin, 7.5 mg/kg q.i.d. C10BBc12B or both; n = 5
Protocol: as §3, §4

K. pneumoniae 1287 = test: Combination with antibiotics, modified checkerboard titration; format: cell-based, Klebsiella pneumoniae
Protocol: as §1, §2

## CO[C@H]1/C=C/O[C@@]2(C)Oc3c(C)c(O)c4c(O)c(c(/C=N/N5CCN(C)CC5)c(O)c4c3C2=O)NC(=O)/C(C)=C\C=C\[C@H](C)[C@H](O)[C@@H](C)[C@@H](O)[C@@H](C)[C@H](OC(C)=O)[C@@H]1C [Rifampin, reference compound]
A. baumannii 19606
  antibiotic MIC after 15 consecutive subcultures: 8 µg/mL
  antibiotic MIC before subculturing: 2 µg/mL
E. coli 25922 [1]
  antibiotic MIC in presence of C10BBc12B: below 1 ng/ml
E. coli 25922 [2]
  effect on bacterial proliferation, individual agent: unable to significantly alter bacterial proliferation
E. coli 25922 [3]; 1.7 × 10^6 CFU/mouse, […] C10BBc12B S.C. 1 h post-infection or 20 mg/kg rifampin oral gavage
  survival rate, monotherapy: 50%
E. coli 25922 [3]; 1.9 × 10^6 CFU/mouse, […] C10BBc12B S.C. or 20 mg/kg rifampin oral
  efficacy, monotherapy, higher inoculum: virtually no efficacy
[4]
  MIC (µM) in LB, E. coli Wild-Type: 19.4 µM (≈ 16 µg/mL)
[5]
  MIC (µM) in LB, S. Typhimurium Wild-Type: 19.4 µM (≈ 16 µg/mL)
E. coli Ag100a (ΔacrAB)
  MIC (µM) in LB, E. coli Mutant: 19.4 µM (≈ 16 µg/mL)
[6]
  MIC (µM) in LB, S. Typhimurium Mutant: 19.4 µM (≈ 16 µg/mL)
UPEC CFT073
  bladder bacterial load: no reduction in bacterial load
K. pneumoniae 1287
  antibiotic MIC in presence of C10BBc12B: below 1 ng/ml

## CC[C@H]1OC(=O)[C@H](C)[C@@H](O[C@H]2C[C@@](C)(OC)[C@@H](O)[C@H](C)O2)[C@H](C)[C@@H](O[C@@H]2O[C@H](C)C[C@H](N(C)C)[C@H]2O)[C@](C)(O)C[C@@H](C)C(=O)[C@H](C)[C@@H](O)[C@]1(C)O [Erythromycin]
A. baumannii 19606
  antibiotic MIC after 15 consecutive subcultures: 8,192 µg/ml
  antibiotic MIC before subculturing: 64 µg/mL
E. coli 25922 [2]
  effect on bacterial proliferation, individual agent: unable to significantly alter bacterial proliferation
[4]
  MIC (µM) in LB, E. coli Wild-Type: > 50 µM
[5]
  MIC (µM) in LB, S. Typhimurium Wild-Type: > 50 µM
E. coli Ag100a (ΔacrAB)
  MIC (µM) in LB, E. coli Mutant: 10.9 µM (≈ 8 µg/mL)
[6]
  MIC (µM) in LB, S. Typhimurium Mutant: 6.8 µM (≈ 4.99 µg/mL)
K. pneumoniae 1287
  antibiotic inhibitory concentration in absence of adjuvant: 512 µg/mL
  antibiotic inhibitory concentration in presence of C10BBc12B: 0.250 µg/mL
